The text below walks through data of US20140080810A1 (Exelixis, Inc., priority 2010, published 2014).

pIC50: −log10 of the molar value. Read-outs that look alike come from different tables or passages of the source.

As a reminder, the pIC50 is the negative decadic logarithm of the IC50, by convention in mol/L.

For one assay, the target named is PI3Kα (Homo sapiens, UniProt P42336). In words: PI3K Biochemical Assay (ATP consumed, luciferase-luciferin chemiluminescence). The note with it: for pIC50: PIP2 used as substrate, read-out: PI3K biochemical IC50 values PI3Kα; for specificity among PI3Kα, PI3Kβ, PI3Kδ, PI3Kγ and mTOR: summary of Table 3. As to the method: PI3Kα activity is measured as the percent of ATP consumed following the kinase reaction using luciferase-luciferin-coupled chemiluminescence. Reactions were conducted in 384-well white, medium binding microtiter plates (Greiner). Kinase reactions were initiated by combining test compounds, ATP, substrate (PIP2), and kinase in a 20 μL volume in a buffer solution. The standard PI3Kalpha assay buffer is composed 50 mM Tris, pH 7.5, 1 mM EGTA, 10 mM MgCl2, 1 mM DTT and 0.03% CHAPS. The standard assay concentrations for enzyme, ATP, and substrate are 1.5 nM, 1 μM, and 10 μM, respectively. The reaction mixture was incubated at ambient temperature for approximately 2 h. Following the kinase reaction, a 10 μL aliquot of luciferase-luciferin mix (Promega Kinase-Glo) was added and the chemiluminescence signal measured using a Victor2 plate reader (Perkin Elmer). Total ATP consumption was limited to 40-60% and IC50 values of control compounds correlate well with literature references. Substituting PI3Kα with PI3Kβ, PI3Kγ, or PI3Kδ, the inhibitory activity of the compounds for the other isoforms of I3K were measured.

The test system of assay [1] is pAKT (T308) in PC-3 cells (PTEN-null). In words: pAKT (T308) ELISA Assay. Format: cell-based. The note with it: Homo sapiens. As to the method:
MCF-7 cells (ATCC) cells were seeded at 24000 cells per well in 96-well plates (Corning, 3904) in DMEM (Cellgro) containing 10% FBS (Cellgro), 1% NEAA (Cellgro) and 1% penicillin-streptomycin (Cellgro). Cells were incubated at 37° C., 5% CO2 for 48 h, and the growth medium was replaced with serum-free DMEM or in medium containing 0.4% BSA. Serial dilutions of the test Compound in 0.3% DMSO (vehicle) were added to the cells and incubated for 3 h. At the end of the incubation period, cells were stimulated for 10 minutes by the addition of L-IGF (Sigma, I-1271) at a final concentration of 100 ng/ml. Afterwards, media was discarded from cell plates and 110 μl/well of cold lysis buffer (see table below) were added. Cell plates were incubated on ice and then put on shaker in 4° C. cold room for 1 h. Two capture plates (Thermo Scientific, Reacti-bind plate, 15042) were prepared for each cell plate by pre-coating with capture Akt antibody from the two sandwich ELISA antibody pairs used (Cell Signaling Technology 7142 and 7144). The Akt capture antibodies were diluted 1:100 in PBS and 100 μl of diluted capture antibody was added per well. Capture plates were incubated at 4 C overnight. […] After 1 h of cell lysis, 85 μl of cell lysate/well was transferred to the capture plate for detection of pAkt(T308). 15 μl of cell lysate was transferred from same well to the second capture plate for detection of total Akt1. After incubation overnight at 4° C., plates were washed 3 times with 200 μL TBST. Primary antibodies, diluted 1:100 in blocking buffer, were added to the corresponding capture plates for pAkt(T308) (Cell Signaling Technology, 7144) and total Akt1 (Cell Signaling Technology, 7142) detection and incubated at room temperature for 1 h. Plates were washed 3 times with 200 μL of TBST. Goat anti-mouse secondary antibody (Cell Signaling Technology, 7076) conjugated to HRP was diluted 1:1000 in blocking buffer and 100 μl were added to each well and incubated for 30 minutes at room temperature. Plates were then washed 3 times with 200 μL of TBST. 100 μL of SuperSignal ELISA Femto stable peroxidase solution (Thermo Scientific, 37075) was added to each well. After 1 minute incubation, chemiluminescence was read on a Wallac Victor2 1420 multilabel counter. IC50 values were determined based on the ratio of pAkt(T308) to total Akt1 signal for Compound treated wells, normalized to the DMSO-treated control wells.
In another embodiment, the pAKT ELISA Assay was performed by seeding cells onto 96-well plates (Corning, 3904) in their respective growth media at the densities listed in Table 5. Cells were incubated at 37° C., 5% CO2 for 48 h (except MDA-MB-453 cells which were cultured in the absence of CO2). Compounds were serially diluted in DMSO and subsequently diluted in serum-free DMEM. Test compounds were added to cells in serum-free DMEM at a final concentration of 0.3% DMSO and incubated for 3 h. Cells were lysed with 130 μL of ice-cold RIPA lysis buffer (50 mM Tris-HCl, pH 7.5; 0.5% sodium deoxycholic acid; 1% Triton X-100; 0.1% SDS; 150 mM NaCl) with protease and phosphatase inhibitors (1 mM EDTA, 1 mM NaF, 20 mM β-glycerophosphate, 1 mM Na-orthovanadate, Complete-Mini EDTA-free, Roche, 11836170001, and Phosphatase Inhibitor Cocktail I, Sigma, P2850), directly in 96-well plates. Cells were lysed on ice for 60-120 min at 4° C. The supernatants were added directly to capture ELISA plates previously pre-coated with rabbit anti-AKT capture antibody. ELISA assays for pAKT(T308) and total AKT were performed with the pAKT(T308) ELISA kit (Cell Signaling Technology, 7144) and AKT1 ELISA kit (Cell Signaling Technology, 7142). For the pAKT(T308) ELISA, 85 μL of cell lysate was added to each well. For the total AKT1 ELISA, 15 μL of cell lysate and 85 μL of Starting Block buffer (Pierce, 37543) were added to each well.
Background: In an ELISA, binding on a coated surface is turned into a signal by an enzyme label.

[2] abbreviates: IGF1 stimulation, read-out: pAKT (T308) IC50 PC# PTEN-null IGF1.
[3] abbreviates: LPA stimulation, read-out: pAKT (T308) IC50 PC# PTEN-null LPA.

Sequence of PI3Kα (P42336 whole entry): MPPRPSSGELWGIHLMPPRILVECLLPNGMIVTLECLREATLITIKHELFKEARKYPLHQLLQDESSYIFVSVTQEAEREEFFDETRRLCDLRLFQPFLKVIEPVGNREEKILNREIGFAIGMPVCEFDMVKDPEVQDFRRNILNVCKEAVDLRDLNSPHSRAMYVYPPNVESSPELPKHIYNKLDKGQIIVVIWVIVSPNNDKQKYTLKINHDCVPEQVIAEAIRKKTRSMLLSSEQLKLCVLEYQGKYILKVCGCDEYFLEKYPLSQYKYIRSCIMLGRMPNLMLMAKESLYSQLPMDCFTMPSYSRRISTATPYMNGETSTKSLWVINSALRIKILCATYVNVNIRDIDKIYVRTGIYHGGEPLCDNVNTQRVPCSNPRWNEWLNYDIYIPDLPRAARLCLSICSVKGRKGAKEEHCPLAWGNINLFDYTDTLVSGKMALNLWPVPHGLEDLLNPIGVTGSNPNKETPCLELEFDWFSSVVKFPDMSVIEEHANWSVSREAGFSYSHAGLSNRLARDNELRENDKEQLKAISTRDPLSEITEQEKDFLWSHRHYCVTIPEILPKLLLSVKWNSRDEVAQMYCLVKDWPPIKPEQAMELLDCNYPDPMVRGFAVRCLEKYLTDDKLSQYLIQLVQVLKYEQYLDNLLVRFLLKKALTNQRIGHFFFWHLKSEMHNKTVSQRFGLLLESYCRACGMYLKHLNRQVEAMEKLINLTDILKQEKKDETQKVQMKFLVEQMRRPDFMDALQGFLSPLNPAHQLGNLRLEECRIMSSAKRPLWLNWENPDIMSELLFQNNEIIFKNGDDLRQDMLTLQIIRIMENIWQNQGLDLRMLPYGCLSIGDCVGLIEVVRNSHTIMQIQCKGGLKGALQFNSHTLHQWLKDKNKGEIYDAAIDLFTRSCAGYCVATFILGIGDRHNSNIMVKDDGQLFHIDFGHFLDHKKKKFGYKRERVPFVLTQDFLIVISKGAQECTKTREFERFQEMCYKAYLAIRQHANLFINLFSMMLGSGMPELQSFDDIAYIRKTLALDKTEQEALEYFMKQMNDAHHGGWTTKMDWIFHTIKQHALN
Sequence of PI3Kα (P27986 whole entry partner): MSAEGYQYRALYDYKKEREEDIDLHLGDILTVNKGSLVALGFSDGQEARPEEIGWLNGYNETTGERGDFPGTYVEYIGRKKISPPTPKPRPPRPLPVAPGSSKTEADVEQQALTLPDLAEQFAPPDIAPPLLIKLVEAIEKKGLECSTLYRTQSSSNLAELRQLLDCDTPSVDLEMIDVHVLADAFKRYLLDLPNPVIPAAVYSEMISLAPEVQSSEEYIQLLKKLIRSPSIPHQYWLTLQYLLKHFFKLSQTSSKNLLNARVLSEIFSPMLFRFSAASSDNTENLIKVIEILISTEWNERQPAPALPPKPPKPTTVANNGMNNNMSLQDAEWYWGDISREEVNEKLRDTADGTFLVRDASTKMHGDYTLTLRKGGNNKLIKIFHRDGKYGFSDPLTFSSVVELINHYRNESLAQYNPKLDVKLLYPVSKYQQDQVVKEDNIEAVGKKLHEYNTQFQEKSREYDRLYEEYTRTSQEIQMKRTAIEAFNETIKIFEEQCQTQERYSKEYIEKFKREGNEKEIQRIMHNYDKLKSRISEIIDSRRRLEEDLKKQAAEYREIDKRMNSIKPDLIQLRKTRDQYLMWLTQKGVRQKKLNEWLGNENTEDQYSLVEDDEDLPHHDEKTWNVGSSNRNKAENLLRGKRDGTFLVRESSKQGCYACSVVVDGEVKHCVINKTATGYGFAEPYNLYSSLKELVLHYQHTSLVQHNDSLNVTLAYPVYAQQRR

Turning to `Cc1nc2cc(-c3ccc4c(c3)CN(c3nc(CN(C)C)nc(C)c3C(C)C)CCO4)cnc2[nH]1` [Compound 694], the results for the pIC50 (on PI3Kα; in assay [1] (setting [2]); in assay [1] (setting [3])) were 8.40, 6.64 and 6.24, respectively.
As to `Cc1nc2ncc(-c3ccc4c(c3)CN(c3nc(CN(C)C)nc5c3CC(C)(C)CC5)CCO4)cc2[nH]1` [Compound 693], the pIC50 on PI3Kα was 8.70.
With `CCNc1nc2ccc(-c3ccc4c(c3)CN(c3ncnc(NCC)c3C)CCO4)cc2[nH]1` [Compound 699], the pIC50 at PI3Kα is 8.22; in assay [1] (setting [2]), 5.67; in assay [1] (setting [3]) it was 5.42. Also, the “specificity among PI3Kα, PI3Kβ, PI3Kδ, PI3Kγ and mTOR” value on PI3Kα is listed as “specific for PI3Kα isoforms”.
The matching figures for `CCNc1nc2ccc(-c3ccc4c(c3)CN(c3ccnc5cc(F)ccc35)CCO4)cc2[nH]1` [Compound 698]: 8.52, 5.54, 5.34 and “specific for PI3Kα isoforms”.
The corresponding values for `COc1ccc2c(N3CCOc4ccc(-c5cnc6nc(C)[nH]c6c5)cc4C3)nc(CN(C)C)nc2c1` [Compound 696] are 8.52, 5.77, 5.73 and “specific for PI3Kα isoforms”.
